Measurements as given in patent publication US20260062422A1 (Halda Therapeutics OpCo, Inc., priority 2022, published 2026).

Legend:
VCaP cells = test: Cellular growth inhibition assay for VCaP cells, CellTiter-Glo; type: cell-based, human; conditions: 72 hours treatment, CellTiter-Glo 2.0
Summary of the method: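 GI50 values come from four-parameter curve fits of luminescence data normalized to a zero baseline. Compound, in medium with 0.5% DMSO, was added one day after plating and left for 72 h before CellTiter-Glo 2.0 addition.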

T47D cells = test: Cellular growth inhibition assay for T47D cells, CellTiter-Glo; type: cell-based, human; conditions: 72 hours treatment, CellTiter-Glo 2.0 cell viability
Summary of the method: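 Luminescence from CellTiter-Glo 2.0 after 72 h of compound exposure gives the viability signal. Cells grew in insulin-supplemented (0.2 units/mL) DMEM with 10% FBS and were treated one day after seeding at 0.5% DMSO. GI50 values come from four-parameter nonlinear regression.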

[1] = test system: T-Rex 293 cell line SC3 cells lacking increased expression of androgen receptor protein; test: Cellular growth inhibition, T-Rex 293 SC3 cells without doxycycline, CellTiter-Glo; type: cell-based; conditions: T-Rex 293 SC3 cells not exposed to doxycycline, CellTiter-Glo 2.0
Summary of the method: (§1)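 Doxycycline-inducible androgen receptor T-Rex 293 clone SC3, seeded at 2500/well in phenol red-free DMEM with 10% charcoal-dextran FBS, without doxycycline or with 10 ng/mL to induce receptor. Compound added after 24 h (0.5% DMSO), 72 h at 37 °C; CellTiter-Glo 2.0 luminescence, GI50 by four-parameter fit.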

[2] = test system: T-Rex 293 cell line SC3 cells having increased expression of androgen receptor protein due to exposure to doxycycline; test: Cellular growth inhibition, T-Rex 293 SC3 cells with doxycycline (androgen receptor induced), CellTiter-Glo; type: cell-based; conditions: T-Rex 293 SC3 cells with 10 ng/mL doxycycline (increased androgen receptor expression)
Summary of the method: as §1

Row | Compound | GI50 (VCaP cells; Homo sapiens, VCaP, 72 h) | GI50 (T47D cells; Homo sapiens, T47D, 72 h) | GI50 ([1]; 72 h) | GI50 ([2]; 72 h) | GI50 (VCaP cells) | GI50 (T47D cells) | GI50 ([1]; 72 hours) | GI50 ([2]; 72 hours)
1 | CCNC(=O)C[C@@H]1N=C(c2ccc(N3CCC(OC4CCN(c5ncc(C(=O)N[C@H]6C(C)(C)[C@H](Oc7ccc(C#N)c(Cl)c7)C6(C)C)cn5)CC4)C3)cc2)c2c(sc(C)c2C)-n2c(C)nnc21 (stereo partly shown) [Compound I-126] | 0.5 to 1.5 µM | < 0.5 µM | 0.5 to 1.5 µM | < 0.5 µM | – | – | – | –
2 | Cc1sc2c(c1C)C(c1ccc(CC[C@H]3CC[C@@]4(CCCN(c5ncc(C(=O)N[C@H]6C(C)(C)[C@H](Oc7ccc(C#N)c(Cl)c7)C6(C)C)cn5)C4)C3)cc1)=N[C@@H](Cc1ncco1)c1nnc(C)n1-2 [Compound I-248] | > 3 µM | > 3 µM | > 3 µM | > 3 µM | – | – | – | –
3 | Cc1sc2c(c1C)C(c1ccc(O[C@H]3CC[C@@]4(CCN(c5ncc(C(=O)N[C@H]6C(C)(C)[C@H](Oc7ccc(C#N)c(Cl)c7)C6(C)C)cn5)C4)C3)cc1)=N[C@@H](Cc1ncco1)c1nnc(C)n1-2 [Compound I-176] | < 0.5 µM | < 0.5 µM | 0.5 to 1.5 µM | < 0.5 µM | – | – | – | –
4 | Cc1sc2c(c1C)C(c1ccc(OC[C@H]3C[C@]4(CCCN(c5ncc(C(=O)N[C@H]6C(C)(C)[C@H](Oc7ccc(C#N)c(Cl)c7)C6(C)C)cn5)C4)C3)cc1)=N[C@@H](Cc1ncco1)c1nnc(C)n1-2 [Compound I-233] | 0.5 to 1.5 µM | < 0.5 µM | 1.5 to 3 µM | < 0.5 µM | – | – | – | –
5 | Cc1sc2c(c1C)C(c1ccc(N3CCC(CNC(=O)c4ncc(C(=O)N[C@H]5C(C)(C)[C@H](Oc6ccc(C#N)c(Cl)c6)C5(C)C)cn4)CC3)cc1)=N[C@H](Cc1ncco1)c1nnc(C)n1-2 [Compound I-291] | < 0.5 µM | 0.5 to 1.5 µM | 0.5 to 1.5 µM | < 0.5 µM | – | – | – | –
6 | Cc1sc2c(c1C)C(c1ccc(OC[C@@H]3CCCN(c4ncc(C(=O)N[C@H]5C(C)(C)[C@H](Oc6ccc(C#N)c(Cl)c6)C5(C)C)cn4)C3)cc1)=N[C@@H](Cc1ncco1)c1nnc(C)n1-2 [Compound I-254] | < 0.5 µM | < 0.5 µM | < 0.5 µM | < 0.5 µM | – | – | – | –
7 | Cc1sc2c(c1C)C(c1ccc(O[C@@H]3CO[C@@]4(CCCN(c5ncc(C(=O)N[C@H]6C(C)(C)[C@H](Oc7ccc(C#N)c(Cl)c7)C6(C)C)cn5)C4)C3)cc1)=N[C@@H](Cc1ncco1)c1nnc(C)n1-2 [Compound I-188] | < 0.5 µM | < 0.5 µM | < 0.5 µM | < 0.5 µM | – | – | – | –
8 | Cc1sc2c(c1C)C(c1ccc(CCCOC3CCN(c4ncc(C(=O)N[C@H]5C(C)(C)[C@H](Oc6ccc(C#N)c(Cl)c6)C5(C)C)cn4)CC3)cc1)=N[C@@H](Cc1ccncc1)c1nnc(C)n1-2 [Compound I-215] | < 0.5 µM | < 0.5 µM | < 0.5 µM | < 0.5 µM | – | – | – | –
9 | Cc1sc2c(c1C)C(c1ccc(OC3CC4(CCN(c5ncc(C(=O)N[C@H]6C(C)(C)[C@H](Oc7ccc(C#N)c(Cl)c7)C6(C)C)cn5)CC4)C3)cc1)=N[C@@H](Cc1nnn(C)n1)c1nnc(C)n1-2 [Compound I-218, N-[3-(3-chloro-4-cyano-phenoxy)-2,2,4,4-tetramethyl-cyclobutyl]-2-[2-[4-[(9S)-4,5,13-trimethyl-9-[(2-methyltetrazol-5-yl)methyl]-3-thia-1,8,11,12-tetrazatricyclo[8.3.0.02,6]trideca-2(6),4,7,10,12-pentaen-7-yl]phenoxy]-7-azaspiro[3.5]nonan-7-yl]pyrimidine-5-carboxamide] | < 0.5 µM | < 0.5 µM | > 3 µM | < 0.5 µM | – | – | – | –
10 | CCNC(=O)C[C@@H]1N=C(c2ccc(OCCN3CCN(c4ncc(C(=O)N[C@H]5C(C)(C)[C@H](Oc6ccc(C#N)c(Cl)c6)C5(C)C)cn4)CC3)cc2)c2c(sc(C)c2C)-n2c(C)nnc21 [Compound I-70] | < 0.5 µM | 0.5 to 1.5 µM | 0.5 to 1.5 µM | < 0.5 µM | – | – | – | –
11 | Cc1sc2c(c1C)C(c1ccc(COC3CCN(c4ncc(C(=O)N[C@H]5C(C)(C)[C@H](Oc6ccc(C#N)c(Cl)c6)C5(C)C)cn4)CC3)cc1)=N[C@@H](C)c1nnc(C)n1-2 [Compound I-347] | > 3 µM | > 3 µM | > 3 µM | > 3 µM | – | – | – | –
12 | Cc1sc2c(c1C)C(c1ccc(CC(C)(C)N3CC4(CCCN(c5ncc(C(=O)N[C@H]6C(C)(C)[C@H](Oc7ccc(C#N)c(Cl)c7)C6(C)C)cn5)C4)C3)cc1)=N[C@@H](Cc1ncco1)c1nnc(C)n1-2 [Compound I-429] | < 0.5 µM | < 0.5 µM | 1.5 to 3 µM | < 0.5 µM | – | – | – | –
13 | Cc1sc2c(c1C)C(c1ccc(O[C@@H]3CCC4(CCN(c5ncc(C(=O)N[C@H]6C(C)(C)[C@H](Oc7ccc(C#N)c(Cl)c7)C6(C)C)cn5)CC4)C3)cc1)=N[C@@H](Cc1ncco1)c1nnc(C)n1-2 [Compound I-174] | 0.5 to 1.5 µM | < 0.5 µM | < 0.5 µM | < 0.5 µM | – | – | – | –
14 | Cc1sc2c(c1C)C(c1ccc(O[C@H]3CCCN(c4ncc(C(=O)N[C@H]5C(C)(C)[C@H](Oc6ccc(C#N)c(Cl)c6)C5(C)C)cn4)C3)cc1)=N[C@@H](Cc1ncco1)c1nnc(C)n1-2 [Compound I-253] | < 0.5 µM | 0.5 to 1.5 µM | < 0.5 µM | < 0.5 µM | – | – | – | –
15 | Cc1sc2c(c1C)C(c1ccc(OC3CC4(CCN(c5ncc(C(=O)N[C@H]6C(C)(C)[C@H](Oc7ccc(C#N)c(Cl)c7)C6(C)C)cn5)CC4)C3)cc1)=N[C@H](Cc1ncco1)c1nnc(C)n1-2 [Compound I-50, N-[3-(3-chloro-4-cyano-phenoxy)-2,2,4,4-tetramethyl-cyclobutyl]-2-[2-[4-[(9R)-4,5,13-trimethyl-9-(oxazol-2-ylmethyl)-3-thia-1,8,11,12-tetrazatricyclo[8.3.0.02,6]trideca-2(6),4,7,10,12-pentaen-7-yl]phenoxy]-7-azaspiro[3.5]nonan-7-yl]pyrimidine-5-carboxamide] | > 3 µM | > 3 µM | > 3 µM | < 0.5 µM | – | – | – | –
16 | Cc1sc2c(c1C)C(c1ccc(N3CCC4(CC3)CC(Cc3ncc(C(=O)N[C@H]5C(C)(C)[C@H](Oc6ccc(C#N)c(Cl)c6)C5(C)C)cn3)C4)cc1)=NC(Cc1ncco1)c1nnc(C)n1-2 (stereo partly shown) [Compound I-459] | – | – | – | < 0.5 µM | > 3 µM | 1.5 to 3 µM | > 3 µM | –
17 | Cc1sc2c(c1C)C(c1ccc(CN3CC(=O)N4C[C@@H](c5ncc(C(=O)N[C@H]6C(C)(C)[C@H](Oc7ccc(C#N)c(Cl)c7)C6(C)C)cn5)C[C@H]4C3=O)cc1)=N[C@@H](Cc1ncco1)c1nnc(C)n1-2 [Compound I-358] | < 0.5 µM | 0.5 to 1.5 µM | > 3 µM | < 0.5 µM | – | – | – | –
18 | CC[C@@H]1N=C(c2ccc(C#CC3CC4(C3)CN(c3ncc(C(=O)N[C@H]5C(C)(C)[C@H](Oc6ccc(C#N)c(Cl)c6)C5(C)C)cn3)C4)cc2)c2c(sc(C)c2C)-n2c(C)nnc21 [Compound I-576] | 0.5 to 1.5 µM | < 0.5 µM | 0.5 to 1.5 µM | < 0.5 µM | – | – | – | –
19 | COCC[C@@H]1N=C(c2ccc(CC3CC4(CCN(c5ncc(C(=O)N[C@H]6C(C)(C)[C@H](Oc7ccc(C#N)c(Cl)c7)C6(C)C)cn5)CC4)C3)cc2)c2c(sc(C)c2C)-n2c(C)nnc21 [Compound I-585] | < 0.5 µM | < 0.5 µM | > 3 µM | < 0.5 µM | – | – | – | –
20 | Cc1sc2c(c1C)C(c1ccc(N3CCC4(CC3)CC(Cc3ncc(C(=O)N[C@H]5C(C)(C)[C@H](Oc6ccc(C#N)c(Cl)c6)C5(C)C)cn3)C4)cc1)=NC(Cc1ncco1)c1nnc(C)n1-2 (stereo partly shown) [Compound I-460] | – | – | – | – | < 0.5 µM | < 0.5 µM | 0.5 to 1.5 µM | < 0.5 µM
21 | Cc1sc2c(c1C)C(c1ccc(N3CCC(CCc4cnc(C(=O)N[C@H]5C(C)(C)[C@H](Oc6ccc(C#N)c(Cl)c6)C5(C)C)cn4)CC3)cc1)=N[C@@H](Cc1ncco1)c1nnc(C)n1-2 [Compound I-478] | < 0.5 µM | 0.5 to 1.5 µM | 0.5 to 1.5 µM | < 0.5 µM | – | – | – | –
22 | Cc1sc2c(c1C)C(c1ccc(OC3CC4(CCN(c5ncc(C(=O)N[C@H]6C(C)(C)[C@H](Oc7ccc(C#N)c(Cl)c7)C6(C)C)cn5)CC4)C3)cc1)=N[C@H](Cc1nnn(C)n1)c1nnc(C)n1-2 [Compound I-219] | > 3 µM | > 3 µM | > 3 µM | < 0.5 µM | – | – | – | –
23 | Cc1sc2c(c1C)C(c1ccc(C3CC(C4CCN(c5ncc(C(=O)N[C@H]6C(C)(C)[C@H](Oc7ccc(C#N)c(Cl)c7)C6(C)C)cn5)CC4)C3)cc1)=N[C@@H](Cc1ncco1)c1nnc(C)n1-2 (stereo partly shown) [Compound I-397] | > 3 µM | > 3 µM | > 3 µM | > 3 µM | – | – | – | –
24 | Cc1sc2c(c1C)C(c1ccc([C@H]3CCN(C(=O)[C@H]4CCCN(c5ncc(C(=O)N[C@H]6C(C)(C)[C@H](Oc7ccc(C#N)c(Cl)c7)C6(C)C)cn5)C4)C3)cc1)=N[C@@H](Cc1ncco1)c1nnc(C)n1-2 [Compound I-387] | < 0.5 µM | < 0.5 µM | 0.5 to 1.5 µM | < 0.5 µM | – | – | – | –
25 | Cc1sc2c(c1C)C(c1ccc(-n3ncc(C4CCN(c5ncc(C(=O)N[C@H]6C(C)(C)[C@H](Oc7ccc(C#N)c(Cl)c7)C6(C)C)cn5)CC4)n3)cc1)=N[C@@H](Cc1ncco1)c1nnc(C)n1-2 [Compound I-430] | < 0.5 µM | < 0.5 µM | < 0.5 µM | < 0.5 µM | – | – | – | –
